Patent US20190105367A1, “ANTIMICROBIAL 4-OXOQUINOLIZINES” (Emergent Product Development Gaithersburg Inc., priority 2011, published 2019)

Tests used:
K. pneumoniae ATCC 33495 = experiment: MIC on K. pneumoniae (Example 5); assay type: cell-based, Klebsiella pneumoniae; conditions: sensitive strain
Description: (§1) MIC Values for all compounds were measured against a selection of bacterial strains. The MICs of 4-oxoquinolizines against a selection of Gram-negative and Gram-positive bacterial strains are shown in Table 13 in comparison with known antibiotics.

[1] = test system: K. pneumoniae BAA-2146 (NDM-1, FQ-R); experiment: MIC on K. pneumoniae (Example 5); assay type: cell-based, Klebsiella pneumoniae; conditions: quinolone-resistant strain
Description: as §1

P. aeruginosa ATCC 27853 = experiment: MIC, selected panel of bacterial strains (Example 5); assay type: cell-based, Pseudomonas aeruginosa
B. thailandensis E264 = experiment: microbe, parasite or virus in culture; assay type: cell-based, Burkholderia thailandensis
[2] = test system: S. aureus BAA-1556 (USA300-Type) (MRSA, FQ-R); experiment: MIC, selected panel of bacterial strains (Example 5); assay type: cell-based, Staphylococcus aureus; conditions: MRSA, FQ-R
A. baumannii ATCC 19606 = experiment: as above; assay type: cell-based, Acinetobacter baumannii
[3] = test system: S. aureus ATCC 43300 (MRSA, FQ-S); experiment: as above; assay type: cell-based, Staphylococcus aureus; conditions: MRSA, FQ-S
E. coli ATCC 25922 = experiment: as above; assay type: cell-based, Escherichia coli
S. aureus ATCC 25923 = experiment: as above; assay type: cell-based, Staphylococcus aureus

SMILES	MICs K. pneumoniae ATCC 33495 (K. pneumoniae ATCC 33495) [µg/mL]	MICs K. pneumoniae BAA-2146 (NDM-1, FQ-R) [1] [µg/mL]	MICs against Gram negative bacteria P. aeruginosa ATCC 27853 (P. aeruginosa ATCC 27853) [µg/mL]	MICs against Gram negative bacteria B. thailandensis E264 (B. thailandensis E264) [µg/mL]	MICs against Gram positive bacteria S. aureus BAA-1556 (USA300-Type) (MRSA, FQ-R) [2] [µg/mL]	MICs against Gram negative bacteria A. baumannii ATCC 19606 (A. baumannii ATCC 19606) [µg/mL]	MICs against Gram positive bacteria S. aureus ATCC 43300 (MRSA, FQ-S) [3] [µg/mL]	MICs against Gram negative bacteria E. coli ATCC 25922 (E. coli ATCC 25922) [µg/mL]	MICs against Gram positive bacteria S. aureus ATCC 25923 (S. aureus ATCC 25923) [µg/mL]
Cc1c(-c2ccc3[nH]ncc3c2)ccn2c(=O)c(C(=O)[O-])cc(C3CC3)c12.[K+] [Compound 35K salt, potassium 8-(1H-indazol-5-yl)-1-cyclopropyl-9-methyl-4-oxo-4H-quinolizine-3-carboxylate]	0.125	>8							
Cc1c(-c2ccc(CN)cc2)c(F)cn2c(=O)c(C(=O)[O-])cc(C3CC3)c12.[K+] [Compound 6K salt]			4 to 8	4	1	1	0.064	0.064 to 0.125	0.125
